Experimental data reported in US10954219B2, “1,3-benzodioxole derivative” (DAIICHI SANKYO COMPANY, LIMITED, priority 2014, dated 2021).
pIC50: −log10 of the molar value.

Key:
[1] = tested on: Intracellular H3K27me3 in HCT116 cells; test: Intracellular H3K27me3 inhibitory activity evaluation; format: cell-based; details: Homo sapiens, HCT-116, 72 h, 3 days, AlphaLISA, read-out: Test Example 3 H3K27me3 inhibition (HCT116) IC50
PRC2-EZH2 (WT EZH2) = biological target: T1, PRC2-EZH2 (WT EZH2) (Homo sapiens, UniProt Q15910); test: EZH2 methyltransferase inhibitory activity evaluation; format: biochemical; details: PRC2-EZH2, biotin-H3 peptide, 3H-SAM, 2 hours
T1 construct: made in house
T1 sequence (Q15910 whole entry): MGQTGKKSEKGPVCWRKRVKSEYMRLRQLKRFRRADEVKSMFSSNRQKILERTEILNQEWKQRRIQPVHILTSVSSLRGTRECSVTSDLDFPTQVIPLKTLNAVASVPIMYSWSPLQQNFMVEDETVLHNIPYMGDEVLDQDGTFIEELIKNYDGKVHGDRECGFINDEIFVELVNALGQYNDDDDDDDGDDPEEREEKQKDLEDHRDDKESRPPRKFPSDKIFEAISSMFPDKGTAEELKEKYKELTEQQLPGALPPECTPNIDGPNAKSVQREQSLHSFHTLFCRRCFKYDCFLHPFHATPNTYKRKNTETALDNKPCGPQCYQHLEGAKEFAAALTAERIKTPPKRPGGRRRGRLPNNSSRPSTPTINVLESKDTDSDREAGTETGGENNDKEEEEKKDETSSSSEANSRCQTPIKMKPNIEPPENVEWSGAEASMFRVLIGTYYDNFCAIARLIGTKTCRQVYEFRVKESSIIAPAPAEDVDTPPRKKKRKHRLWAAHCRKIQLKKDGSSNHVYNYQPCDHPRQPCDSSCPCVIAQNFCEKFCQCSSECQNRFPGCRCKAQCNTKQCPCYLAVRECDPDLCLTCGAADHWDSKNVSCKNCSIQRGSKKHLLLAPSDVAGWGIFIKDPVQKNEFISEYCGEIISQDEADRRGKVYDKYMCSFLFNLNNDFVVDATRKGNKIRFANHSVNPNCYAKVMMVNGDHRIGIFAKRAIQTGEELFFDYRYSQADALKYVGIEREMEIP
T1 sequence (O75530 whole entry partner): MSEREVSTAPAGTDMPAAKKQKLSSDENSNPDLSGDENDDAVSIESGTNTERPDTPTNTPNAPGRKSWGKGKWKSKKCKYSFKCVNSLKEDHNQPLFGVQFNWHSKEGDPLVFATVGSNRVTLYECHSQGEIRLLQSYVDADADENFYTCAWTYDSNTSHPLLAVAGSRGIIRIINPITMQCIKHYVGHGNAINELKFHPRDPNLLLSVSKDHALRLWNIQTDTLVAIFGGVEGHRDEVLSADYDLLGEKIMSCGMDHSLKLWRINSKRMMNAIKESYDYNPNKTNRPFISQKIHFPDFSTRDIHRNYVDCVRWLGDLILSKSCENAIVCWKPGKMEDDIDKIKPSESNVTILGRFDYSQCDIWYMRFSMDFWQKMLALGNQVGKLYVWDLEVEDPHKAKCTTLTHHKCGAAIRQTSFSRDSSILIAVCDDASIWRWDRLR
T1 sequence (Q15022 whole entry partner): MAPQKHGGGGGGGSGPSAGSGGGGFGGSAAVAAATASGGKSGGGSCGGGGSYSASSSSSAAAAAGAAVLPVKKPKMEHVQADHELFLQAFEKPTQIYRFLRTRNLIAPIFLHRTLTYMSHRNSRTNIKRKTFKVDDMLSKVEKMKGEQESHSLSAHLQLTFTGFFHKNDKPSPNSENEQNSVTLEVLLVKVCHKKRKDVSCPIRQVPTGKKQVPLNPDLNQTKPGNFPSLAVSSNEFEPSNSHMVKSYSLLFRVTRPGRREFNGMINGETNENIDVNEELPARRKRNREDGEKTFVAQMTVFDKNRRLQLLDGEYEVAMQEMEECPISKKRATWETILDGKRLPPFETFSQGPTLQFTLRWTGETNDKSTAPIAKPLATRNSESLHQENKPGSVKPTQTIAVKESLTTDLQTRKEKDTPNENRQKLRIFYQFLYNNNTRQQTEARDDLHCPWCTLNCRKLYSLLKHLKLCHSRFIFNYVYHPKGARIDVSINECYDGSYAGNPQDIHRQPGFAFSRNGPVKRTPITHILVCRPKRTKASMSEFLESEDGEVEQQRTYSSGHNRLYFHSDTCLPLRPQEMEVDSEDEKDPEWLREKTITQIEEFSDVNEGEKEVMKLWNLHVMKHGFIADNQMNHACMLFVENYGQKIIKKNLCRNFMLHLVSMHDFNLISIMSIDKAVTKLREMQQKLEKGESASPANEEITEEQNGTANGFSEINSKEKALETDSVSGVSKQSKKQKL

PRC2-EZH1 (WT EZH1) = PRC2-EZH1 (WT EZH1) (Homo sapiens, UniProt Q92800); test: EZH1 methyltransferase inhibitory activity evaluation
Chain of PRC2-EZH1 (WT EZH1) (Q92800 whole entry): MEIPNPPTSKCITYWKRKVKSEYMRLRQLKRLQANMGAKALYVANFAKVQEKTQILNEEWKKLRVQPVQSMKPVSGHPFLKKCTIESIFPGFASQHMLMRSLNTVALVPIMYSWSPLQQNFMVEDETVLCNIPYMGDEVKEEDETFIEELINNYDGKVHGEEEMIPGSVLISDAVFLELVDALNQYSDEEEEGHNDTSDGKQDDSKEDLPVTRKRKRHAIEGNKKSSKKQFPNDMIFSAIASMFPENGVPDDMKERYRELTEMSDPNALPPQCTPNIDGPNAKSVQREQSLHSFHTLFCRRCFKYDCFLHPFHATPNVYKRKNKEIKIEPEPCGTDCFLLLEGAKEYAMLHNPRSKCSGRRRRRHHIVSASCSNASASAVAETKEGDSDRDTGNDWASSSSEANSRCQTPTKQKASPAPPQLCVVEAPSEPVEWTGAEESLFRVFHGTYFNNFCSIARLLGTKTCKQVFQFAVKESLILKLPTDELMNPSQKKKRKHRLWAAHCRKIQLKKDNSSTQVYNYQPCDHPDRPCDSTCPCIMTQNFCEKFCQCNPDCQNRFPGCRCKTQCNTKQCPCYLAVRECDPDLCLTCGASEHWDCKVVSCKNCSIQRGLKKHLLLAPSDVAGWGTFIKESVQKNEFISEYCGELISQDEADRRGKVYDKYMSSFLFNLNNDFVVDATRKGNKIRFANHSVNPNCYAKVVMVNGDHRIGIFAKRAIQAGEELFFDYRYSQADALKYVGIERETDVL
Chain of PRC2-EZH1 (WT EZH1) (O75530 whole entry partner): as the sequence (O75530 whole entry partner) above
Chain of PRC2-EZH1 (WT EZH1) (Q15022 whole entry partner): as the sequence (Q15022 whole entry partner) above
Chain of PRC2-EZH1 (WT EZH1) (Q09028 whole entry partner): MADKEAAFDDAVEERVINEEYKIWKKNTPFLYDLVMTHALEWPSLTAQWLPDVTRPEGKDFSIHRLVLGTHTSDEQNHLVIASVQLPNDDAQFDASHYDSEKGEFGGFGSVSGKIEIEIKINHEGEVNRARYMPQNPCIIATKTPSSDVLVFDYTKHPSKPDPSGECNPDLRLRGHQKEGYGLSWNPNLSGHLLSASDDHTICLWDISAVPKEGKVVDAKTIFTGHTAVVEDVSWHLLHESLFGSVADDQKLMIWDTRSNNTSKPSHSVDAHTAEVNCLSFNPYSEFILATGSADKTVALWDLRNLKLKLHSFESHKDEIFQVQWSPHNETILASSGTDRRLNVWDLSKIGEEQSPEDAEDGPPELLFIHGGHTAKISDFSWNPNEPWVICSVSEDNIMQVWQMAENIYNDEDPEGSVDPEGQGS
Chain of PRC2-EZH1 (WT EZH1) (Q6ZN18 whole entry partner): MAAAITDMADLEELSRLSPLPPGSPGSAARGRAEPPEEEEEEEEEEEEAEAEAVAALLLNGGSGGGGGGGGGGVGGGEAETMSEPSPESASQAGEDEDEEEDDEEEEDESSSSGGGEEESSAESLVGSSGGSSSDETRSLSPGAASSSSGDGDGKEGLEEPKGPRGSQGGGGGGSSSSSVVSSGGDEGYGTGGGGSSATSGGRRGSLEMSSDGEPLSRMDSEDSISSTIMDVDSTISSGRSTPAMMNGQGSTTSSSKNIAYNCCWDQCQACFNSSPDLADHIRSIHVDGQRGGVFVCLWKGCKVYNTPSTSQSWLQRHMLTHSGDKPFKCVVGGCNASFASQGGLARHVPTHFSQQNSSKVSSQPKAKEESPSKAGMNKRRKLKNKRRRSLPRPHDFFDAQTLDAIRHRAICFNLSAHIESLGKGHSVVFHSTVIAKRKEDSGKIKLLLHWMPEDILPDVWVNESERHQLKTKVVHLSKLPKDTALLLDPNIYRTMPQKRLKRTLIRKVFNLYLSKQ

| pIC50 [1] | pIC50 (PRC2-EZH2 (WT EZH2)) | pIC50 (PRC2-EZH1 (WT EZH1)) | Compound |
| --- | --- | --- | --- |
| 8.43 | 8.04 | – | CCS(=O)(=O)N1CCC([C@@]2(C)Oc3c(Br)cc(C(=O)NCc4c(C)cc(C)[nH]c4=O)c(C)c3O2)CC1 [Example 11, (2R)-7-Bromo-N-[(4,6-dimethyl-2-oxo-1,2-dihydropyridin-3-yl)methyl]-2-(1-ethylsulfonyl-4-piperidyl)-2,4-dimethyl-1,3-benzodioxole-5-carboxamide] |
| 7.89 | 8.02 | 6.96 | Cc1cc(C)c(CNC(=O)c2cc(Br)c3c(c2C)O[C@@](C)(CN2CCOCC2)O3)c(=O)[nH]1 [Example 45, (2R)-7-Bromo-N-[(4,6-dimethyl-2-oxo-1,2-dihydropyridin-3-yl)methyl]-2,4-dimethyl-2-(morpholinomethyl)-1,3-benzodioxole-5-carboxamide] |
| 7.49 | 7.96 | 6.68 | Cc1cc(C)c(CNC(=O)c2cc(Cl)c3c(c2C)OC(C)(CC2CCN(C)CC2)O3)c(=O)[nH]1 (stereo not drawn) [Example 40, 7-Chloro-N-[(4,6-dimethyl-2-oxo-1,2-dihydropyridin-3-yl)methyl]-2,4-dimethyl-2-[(1-methyl-4-piperidyl)methyl]-1,3-benzodioxole-5-carboxamide] |
| 7.54 | 7.62 | 6.85 | Cc1cc(C)c(CNC(=O)c2cc(Br)c3c(c2C)OC(C)(C2CCOC2)O3)c(=O)[nH]1 (stereo not drawn) [Example 1, 7-Bromo-N-[(4,6-dimethyl-2-oxo-1,2-dihydropyridin-3-yl)methyl]-2,4-dimethyl-2-(tetrahydrofuran-3-yl)-1,3-benzodioxole-5-carboxamide] |
| 7.89 | 7.66 | 7.77 | Cc1cc(C)c(CNC(=O)c2cc(-c3ccc(CN4CCOCC4)nc3)c3c(c2C)OC(C)([C@H]2CC[C@H](N(C)C)CC2)O3)c(=O)[nH]1 (relative stereo) [Example 63, 2-[trans-4-(Dimethylamino)cyclohexyl]-N-[(4,6-dimethyl-2-oxo-1,2-dihydropyridin-3-yl)methyl]-2,4-dimethyl-7-[6-(morpholinomethyl)-3-pyridyl]-1,3-benzodioxole-5-carboxamide] |
| 7.96 | – | – | Cc1cc(C)c(CNC(=O)c2cc(Br)c3c(c2C)OC(C)([C@H]2CC[C@@H](N(C)C)CC2)O3)c(=O)[nH]1 (relative stereo) [Example 41, 7-Bromo-2-[cis-4-(dimethylamino)cyclohexyl]-N-[(4,6-dimethyl-2-oxo-1,2-dihydropyridin-3-yl)methyl]-2,4-dimethyl-1,3-benzodioxole-5-carboxamide] |
| 7.29 | 7.82 | 6.60 | CCN1CC2(CC(C3(C)Oc4c(Br)cc(C(=O)NCc5c(C)cc(C)[nH]c5=O)c(C)c4O3)C2)C1 (stereo not drawn) [Example 5, 7-Bromo-N-[(4,6-dimethyl-2-oxo-1,2-dihydropyridin-3-yl)methyl]-2-(2-ethyl-2-azaspiro[3.3]heptan-6-yl)-2,4-dimethyl-1,3-benzodioxole-5-carboxamide] |
| 8.08 | 8.44 | 7.42 | CCN1CCC([C@@]2(C)Oc3c(Br)cc(C(=O)NCc4c(C)cc(C)[nH]c4=O)c(C)c3O2)CC1 [Example 7, (2R)-7-Bromo-N-[(4,6-dimethyl-2-oxo-1,2-dihydropyridin-3-yl)methyl]-2-(1-ethyl-4-piperidyl)-2,4-dimethyl-1,3-benzodioxole-5-carboxamide] |
| 8.55 | 7.92 | 7.24 | Cc1cc(C)c(CNC(=O)c2cc(Cl)c3c(c2C)OC(C)([C@@H]2CC[C@@H](N(C)C)CO2)O3)c(=O)[nH]1 (stereo partly drawn) [Example 38, 7-Chloro-2-[(2S,5R)-5-(dimethylamino)tetrahydropyran-2-yl]-N-[(4,6-dimethyl-2-oxo-1,2-dihydropyridin-3-yl)methyl]-2,4-dimethyl-1,3-benzodioxole-5-carboxamide] |
| 8.80 | 7.72 | 7.55 | CCc1cc(C)[nH]c(=O)c1CNC(=O)c1cc(Cl)c2c(c1C)OC(C)([C@H]1CC[C@H](N(C)C)CC1)O2 (relative stereo) [Example 37, 7-Chloro-2-[trans-4-(dimethylamino)cyclohexyl]-N-[(4-ethyl-6-methyl-2-oxo-1,2-dihydropyridin-3-yl)methyl]-2,4-dimethyl-1,3-benzodioxole-5-carboxamide] |
| 8.85 | 8.00 | 7.66 | Cc1cc(C)c(CNC(=O)c2cc(C)c3c(c2C)OC(C)([C@H]2CC[C@H](N(C)C)CC2)O3)c(=O)[nH]1 (relative stereo) [Example 47, 2-[trans-4-(Dimethylamino)cyclohexyl]-N-[(4,6-dimethyl-2-oxo-1,2-dihydropyridin-3-yl)methyl]-2,4,7-trimethyl-1,3-benzodioxole-5-carboxamide] |
| 7.38 | 7.46 | 6.41 | Cc1cc(C)c(CNC(=O)c2cc(Cl)c3c(c2Cl)OC(C)(C2CCN(C)CC2)O3)c(=O)[nH]1 (stereo not drawn) [Example 51, 4,7-Dichloro-N-[(4,6-dimethyl-2-oxo-1,2-dihydropyridin-3-yl)methyl]-2-methyl-2-(1-methyl-4-piperidyl)-1,3-benzodioxole-5-carboxamide] |
| 7.89 | 7.96 | – | CCCN1CCC([C@@]2(C)Oc3c(Br)cc(C(=O)NCc4c(C)cc(C)[nH]c4=O)c(C)c3O2)CC1 [Example 9, (2R)-7-Bromo-N-[(4,6-dimethyl-2-oxo-1,2-dihydropyridin-3-yl)methyl]-2,4-dimethyl-2-(1-propyl-4-piperidyl)-1,3-benzodioxole-5-carboxamide] |
| 7.85 | 7.70 | 7.11 | Cc1cc(C)c(CNC(=O)c2cc(Br)c3c(c2C)OC(C)(C[C@H]2CC[C@H](N(C)C)CC2)O3)c(=O)[nH]1 (relative stereo) [Example 28, 7-Bromo-2-[[trans-4-(dimethylamino)cyclohexyl]methyl]-N-[(4,6-dimethyl-2-oxo-1,2-dihydropyridin-3-yl)methyl]-2,4-dimethyl-1,3-benzodioxole-5-carboxamide] |
| 7.43 | 7.54 | 6.43 | CCN1CCC(C2(C)Oc3c(Cl)cc(C(=O)NCc4c(C)cc(C)[nH]c4=O)c(Cl)c3O2)CC1 (stereo not drawn) [Example 52, 4,7-Dichloro-N-[(4,6-dimethyl-2-oxo-1,2-dihydropyridin-3-yl)methyl]-2-(1-ethyl-4-piperidyl)-2-methyl-1,3-benzodioxole-5-carboxamide] |
| 8.05 | 7.66 | – | Cc1cc(C)c(CNC(=O)c2cc(Br)c3c(c2C)OC(C)(C2CCOCC2)O3)c(=O)[nH]1 (stereo not drawn) [Example 2, 7-Bromo-N-[(4,6-dimethyl-2-oxo-1,2-dihydropyridin-3-yl)methyl]-2,4-dimethyl-2-(tetrahydropyran-4-yl)-1,3-benzodioxole-5-carboxamide] |
| 8.80 | 7.85 | – | Cc1cc(C)c(CNC(=O)c2cc(Br)c3c(c2C)OC(C)([C@@H]2CC[C@@H](N(C)C)CO2)O3)c(=O)[nH]1 (stereo partly drawn) [Example 22, 7-Bromo-2-[(2S,5R)-5-(dimethylamino)tetrahydropyran-2-yl]-N-[(4,6-dimethyl-2-oxo-1,2-dihydropyridin-3-yl)methyl]-2,4-dimethyl-1,3-benzodioxole-5-carboxamide] |
